In article PMC10885153, “Membrane Permeability in a Large Macrocyclic Peptide Driven by a Saddle-Shaped Conformation” (Journal of the American Chemical Society, 2024):
Positions of bridges follow the written chain, without caps; N, C: chain ends. Non-standard residues stand in square brackets, D forms with d. Residues, ends and D or L forms follow the SMILES beside them. Cha = N[C@@H](CC1CCCCC1)C(=O)O; NMeNva = CCC[C@H](NC)C(=O)O; NMeAbu = CC[C@H](NC)C(=O)O; NMeC = CN[C@@H](CS)C(=O)O; NMeA = CN[C@@H](C)C(=O)O; dAbu = CC[C@@H](N)C(=O)O; dNMeA = CN[C@H](C)C(=O)O; Nva = CCC[C@H](N)C(=O)O; Abu = CC[C@H](N)C(=O)O; Nleu = CC(C)CNCC(=O)O; NPrGly = CCCNCC(=O)O; NEtG = CCNCC(=O)O

Key:
[1] = in vitro; conditions: PAMPA
[2] = PAMPA, 10 µM, pH 7.4
[3] = PAMPA, compounds measured in multiplex as mixtures (primary protocol); conditions: for PAMPA Pe_avg: Stereoscan Library A (Scaffold A), average; for Papp at 10 µM: PAMPA, pH 7.4, PAMPA Papp; for Papp at 10 µM / PAMPA Papp: internal standard, 10 µM
[4] = in vitro; conditions: dog, MDCK, pH 7.4

Row | Structure (SMILES) | Papp at 10 µM ([1]; pH 7.4, Pe_avg) | %R_avg [2] | also measured
1 | CCCN1CC(=O)N[C@@H](CC(C)C)C(=O)N(C)[C@@H](C)C(=O)N[C@@H](CC(C)C)C(=O)N(C)[C@H](C(=O)OCC)CSCC(=O)N[C@@H](CC(C)C)C(=O)N(C)[C@@H](C)C(=O)N[C@@H](CC(C)C)C(=O)N2CCC[C@@H]2C1=O [LA08, O=C(N(C)[C@H](C(OCC)=O)CSCC(N[C@H](C(N(C)[C@@H](C)C(N[C@@H](CC(C)C)C(N1[C@H](CCC1)C(N(CCC)CC(N[C@H]2CC(C)C)=O)=O)=O)=O)=O)CC(C)C)=O)[C@H](CC(C)C)NC([C@H](C)N(C)C2=O)=O] ({CH2CO}-L[NMeA]L[dP][NPrGly]L[NMeA]L[NMeC]-OEt; thioether N-9) | 0.794 ×10⁻⁶ cm/s | 4.8% | log(Pe)_avg [2]: -6.100
2 | CCOC(=O)[C@@H]1CSCC(=O)N[C@H](CC)C(=O)N(C)[C@@H](C)C(=O)N[C@H](CC(C)C)C(=O)N(C)[C@H](C)C(=O)N(CC(C)C)CC(=O)N[C@@H](CC(C)C)C(=O)N(C)[C@@H](C)C(=O)N[C@@H](CC(C)C)C(=O)N1C [JF206_A2D_DDLL_Isobutyl] ({CH2CO}-[dAbu][NMeA][dL][dNMeA][Nleu]L[NMeA]L[NMeC]-OEt; thioether N-9) | – | – | PAMPA Pe_avg [3]: 0 ×10⁻⁶ cm/s
3 | CC(C)NCC(O)COc1cccc2ccccc12 (centres unmarked) [Propranolol] | – | – | Papp at 10 µM ([3]; Lipo expt. group A1): 9.1 ± 0.4 ×10⁻⁶ cm/s; Papp at 10 µM ([3]; Lipo expt. group A2): 9.2 ± 0.9 ×10⁻⁶ cm/s; Papp at 10 µM ([3]; Lipo expt. group B2): 8.8 ± 0.2 ×10⁻⁶ cm/s; Papp at 10 µM ([3]; Lipo expt. group C1): 9.8 ± 0.2 ×10⁻⁶ cm/s; PAMPA Papp ([3]; Lipo expt. group B1): 7.7 ± 0.8 x10-6 cm/s; PAMPA Papp ([3]; Lipo expt. group C2): 9.4 ± 0.4 x10-6 cm/s
4 | CCCN1CC(=O)N[C@@H](CC(C)C)C(=O)N2CCC[C@@H]2C(=O)N(C)[C@@H](C)C(=O)N[C@@H](CC2CCCCC2)C(=O)N(C)[C@@H](C)C(=O)N[C@@H](CC(C)C)C(=O)N(C)[C@H](C(=O)OCC)CSCC(=O)N[C@@H](CC(C)C)C1=O [LB12, O=C(N(C)[C@H](C(OCC)=O)CSCC(N[C@H](C1=O)CC(C)C)=O)[C@H](CC(C)C)NC([C@H](C)N(C)C([C@H](CC2CCCCC2)NC([C@H](C)N(C)C([C@@H]3N(C([C@H](CC(C)C)NC(CN1CCC)=O)=O)CCC3)=O)=O)=O)=O] ({CH2CO}-L[NPrGly]L[dP][NMeA][Cha][NMeA]L[NMeC]-OEt; thioether N-9) | 0.072 ×10⁻⁶ cm/s | 6.0% | Papp at 10 µM ([1]; pH 7.4, log(Pe)_avg): 0.0593 ×10⁻⁶ cm/s
5 | CCC[C@@H]1NC(=O)CN(CC)C(=O)[C@H](CC(C)C)NC(=O)CSC[C@@H](C(=O)OCC)N(C)C(=O)[C@H](CC(C)C)NC(=O)[C@H](C)N(C)C(=O)[C@H](CC(C)C)NC(=O)[C@H](C)N(C)C(=O)[C@H]2CCCN2C1=O [LB05, O=C(N(C)[C@H](C(OCC)=O)CSCC(N[C@H](C1=O)CC(C)C)=O)[C@H](CC(C)C)NC([C@H](C)N(C)C([C@H](CC(C)C)NC([C@H](C)N(C)C([C@@H]2N(C([C@H](CCC)NC(CN1CC)=O)=O)CCC2)=O)=O)=O)=O] ({CH2CO}-L[NEtG][Nva][dP][NMeA]L[NMeA]L[NMeC]-OEt; thioether N-9) | 2.57 ×10⁻⁶ cm/s | 50.3% | –
6 | CCOC(=O)[C@@H]1CSCC(=O)N[C@@H](CC(C)C)C(=O)N(C)[C@@H](C)C(=O)N[C@@H](CC(C)C)C(=O)N2CCC[C@@H]2C(=O)N(C)[C@@H](CC)C(=O)N[C@@H](CC)C(=O)N(C)[C@@H](C)C(=O)N[C@@H](CC(C)C)C(=O)N1C [LC02, O=C(N(C)[C@H](C(OCC)=O)CSCC(N[C@H](C(N(C)[C@@H](C)C(N[C@@H](CC(C)C)C(N1[C@H](CCC1)C(N(C)[C@@H](CC)C(N[C@H]2CC)=O)=O)=O)=O)=O)CC(C)C)=O)[C@H](CC(C)C)NC([C@H](C)N(C)C2=O)=O] ({CH2CO}-L[NMeA]L[dP][NMeAbu][Abu][NMeA]L[NMeC]-OEt; thioether N-9) | – | 19.3% | Papp A→B at 3 h, 10 µM [4]: 7.4 ×10⁻⁶ cm/s; Papp at 3 h, 10 µM [4]: 7.4 ×10⁻⁶ cm/s; Papp at 10 µM ([1]; pH 7.4, Permeability (Papp) PAMPA (mixture)): 5 ×10⁻⁶ cm/s
7 | CCOC(=O)[C@@H]1CSCC(=O)N[C@H](CC)C(=O)N(C)[C@@H](C)C(=O)N[C@H](CC(C)C)C(=O)N(C)[C@H](C)C(=O)N(CC)CC(=O)N[C@@H](CC(C)C)C(=O)N(C)[C@@H](C)C(=O)N[C@@H](CC(C)C)C(=O)N1C [JF206_A2D_DDLL_Ethyl] ({CH2CO}-[dAbu][NMeA][dL][dNMeA][NEtG]L[NMeA]L[NMeC]-OEt; thioether N-9) | – | – | PAMPA Pe_avg [3]: 0 ×10⁻⁶ cm/s
8 | CCCN1CC(=O)N[C@@H](CC(C)C)C(=O)N2CCC[C@@H]2C(=O)N(C)[C@@H](C)C(=O)N[C@@H](CC(C)C)C(=O)N(C)[C@@H](C)C(=O)N[C@@H](CC(C)C)C(=O)N(C)[C@H](C(=O)OCC)CSCC(=O)N[C@@H](CC(C)C)C1=O [LB08, O=C(N(C)[C@H](C(OCC)=O)CSCC(N[C@H](C1=O)CC(C)C)=O)[C@H](CC(C)C)NC([C@H](C)N(C)C([C@H](CC(C)C)NC([C@H](C)N(C)C([C@@H]2N(C([C@H](CC(C)C)NC(CN1CCC)=O)=O)CCC2)=O)=O)=O)=O] ({CH2CO}-L[NPrGly]L[dP][NMeA]L[NMeA]L[NMeC]-OEt; thioether N-9) | 2.29 ×10⁻⁶ cm/s | 13.3% | –
9 | CCC[C@@H]1NC(=O)[C@H](C)N(C)C(=O)[C@H](CC(C)C)NC(=O)CSC[C@@H](C(=O)OCC)N(C)C(=O)[C@H](CC(C)C)NC(=O)[C@H](C)N(C)C(=O)[C@H](CC2CCCCC2)NC(=O)CN(CCC)C(=O)[C@H]2CCCN2C1=O [LA11, O=C(N(C)[C@H](C(OCC)=O)CSCC(N[C@H](C(N(C)[C@@H](C)C(N[C@@H](CCC)C(N1[C@H](CCC1)C(N(CCC)CC(N[C@H]2CC3CCCCC3)=O)=O)=O)=O)=O)CC(C)C)=O)[C@H](CC(C)C)NC([C@H](C)N(C)C2=O)=O] ({CH2CO}-L[NMeA][Nva][dP][NPrGly][Cha][NMeA]L[NMeC]-OEt; thioether N-9) | – | 6.5% | –
10 | CCC[C@@H]1NC(=O)[C@H](C)N(C)C(=O)[C@H](CC(C)C)NC(=O)CSC[C@@H](C(=O)OCC)N(C)C(=O)[C@H](CC(C)C)NC(=O)[C@H](C)N(C)C(=O)[C@H](CC)NC(=O)CN(CC)C(=O)[C@H]2CCCN2C1=O [LA01, O=C(N(C)[C@H](C(OCC)=O)CSCC(N[C@H](C(N(C)[C@@H](C)C(N[C@@H](CCC)C(N1[C@H](CCC1)C(N(CC)CC(N[C@H]2CC)=O)=O)=O)=O)=O)CC(C)C)=O)[C@H](CC(C)C)NC([C@H](C)N(C)C2=O)=O] ({CH2CO}-L[NMeA][Nva][dP][NEtG][Abu][NMeA]L[NMeC]-OEt; thioether N-9) | – | 33.1% | –
11 | CCC[C@H]1C(=O)N[C@@H](CC(C)C)C(=O)N(C)[C@@H](C)C(=O)N[C@@H](CC(C)C)C(=O)N(C)[C@H](C(=O)OCC)CSCC(=O)N[C@@H](CC(C)C)C(=O)N(C)[C@@H](C)C(=O)N[C@@H](CC(C)C)C(=O)N2CCC[C@@H]2C(=O)N1C [LC08, O=C(N(C)[C@H](C(OCC)=O)CSCC(N[C@H](C(N(C)[C@@H](C)C(N[C@@H](CC(C)C)C(N1[C@H](CCC1)C(N(C)[C@@H](CCC)C(N[C@H]2CC(C)C)=O)=O)=O)=O)=O)CC(C)C)=O)[C@H](CC(C)C)NC([C@H](C)N(C)C2=O)=O] ({CH2CO}-L[NMeA]L[dP][NMeNva]L[NMeA]L[NMeC]-OEt; thioether N-9) | – | 4.6% | –
12 | CCC[C@H]1C(=O)N[C@@H](CC2CCCCC2)C(=O)N(C)[C@@H](C)C(=O)N[C@@H](CC(C)C)C(=O)N(C)[C@H](C(=O)OCC)CSCC(=O)N[C@@H](CC(C)C)C(=O)N(C)[C@@H](C)C(=O)N[C@@H](CC(C)C)C(=O)N2CCC[C@@H]2C(=O)N1C [LC12, O=C(N(C)[C@H](C(OCC)=O)CSCC(N[C@H](C(N(C)[C@@H](C)C(N[C@@H](CC(C)C)C(N1[C@H](CCC1)C(N(C)[C@@H](CCC)C(N[C@H]2CC3CCCCC3)=O)=O)=O)=O)=O)CC(C)C)=O)[C@H](CC(C)C)NC([C@H](C)N(C)C2=O)=O] ({CH2CO}-L[NMeA]L[dP][NMeNva][Cha][NMeA]L[NMeC]-OEt; thioether N-9) | – | 12.7% | Pe_avg [2]: 0 ×10⁻⁶ cm/s
13 | CCC[C@@H]1NC(=O)[C@H](C)N(C)C(=O)[C@H](CC(C)C)NC(=O)CSC[C@@H](C(=O)OCC)N(C)C(=O)[C@H](CC(C)C)NC(=O)[C@H](C)N(C)C(=O)[C@H](CC2CCCCC2)NC(=O)[C@H](CCC)N(C)C(=O)[C@H]2CCCN2C1=O [LC11, O=C(N(C)[C@H](C(OCC)=O)CSCC(N[C@H](C(N(C)[C@@H](C)C(N[C@@H](CCC)C(N1[C@H](CCC1)C(N(C)[C@@H](CCC)C(N[C@H]2CC3CCCCC3)=O)=O)=O)=O)=O)CC(C)C)=O)[C@H](CC(C)C)NC([C@H](C)N(C)C2=O)=O] ({CH2CO}-L[NMeA][Nva][dP][NMeNva][Cha][NMeA]L[NMeC]-OEt; thioether N-9) | – | 7.4% | –
14 | CCC[C@@H]1NC(=O)CN(CC)C(=O)[C@H](CC(C)C)NC(=O)CSC[C@@H](C(=O)OCC)N(C)C(=O)[C@H](CC(C)C)NC(=O)[C@H](C)N(C)C(=O)[C@H](CC)NC(=O)[C@H](C)N(C)C(=O)[C@H]2CCCN2C1=O [LB01, O=C(N(C)[C@H](C(OCC)=O)CSCC(N[C@H](C1=O)CC(C)C)=O)[C@H](CC(C)C)NC([C@H](C)N(C)C([C@H](CC)NC([C@H](C)N(C)C([C@@H]2N(C([C@H](CCC)NC(CN1CC)=O)=O)CCC2)=O)=O)=O)=O] ({CH2CO}-L[NEtG][Nva][dP][NMeA][Abu][NMeA]L[NMeC]-OEt; thioether N-9) | – | 62.4% | –
15 | CCC[C@@H]1NC(=O)CN(CCC)C(=O)[C@H](CC(C)C)NC(=O)CSC[C@@H](C(=O)OCC)N(C)C(=O)[C@H](CC(C)C)NC(=O)[C@H](C)N(C)C(=O)[C@H](CC2CCCCC2)NC(=O)[C@H](C)N(C)C(=O)[C@H]2CCCN2C1=O [LB11, O=C(N(C)[C@H](C(OCC)=O)CSCC(N[C@H](C1=O)CC(C)C)=O)[C@H](CC(C)C)NC([C@H](C)N(C)C([C@H](CC2CCCCC2)NC([C@H](C)N(C)C([C@@H]3N(C([C@H](CCC)NC(CN1CCC)=O)=O)CCC3)=O)=O)=O)=O] ({CH2CO}-L[NPrGly][Nva][dP][NMeA][Cha][NMeA]L[NMeC]-OEt; thioether N-9) | 0.619 ×10⁻⁶ cm/s | 6.2% | Papp at 10 µM ([1]; pH 7.4, log(Pe)_avg): 0.551 ×10⁻⁶ cm/s
